Measured values published in paper PMC11714206, “Massively Parallel Screening of Toll/Interleukin‐1 Receptor (TIR)‐Derived Peptides Reveals Multiple Toll‐Like Receptors (TLRs)‐Targeting Immunomodulatory Peptides” (Advanced Science, 2024).
One block for each sequence: values may come before it.

Target: T1, MAL^TIR (Homo sapiens, UniProt P58753)
T1 construct: MAL (residues 79–221); 6xHis; made in house; host or cells: E. coli BL21 (DE3)
Test: T‐Surf phage library (P8 and P3) selection against MAL^TIR, four rounds, NGS read counts
Format: binding
Conditions: for P3_MAL Rank (after) / P3_MAL Rank (before): P3 library; for P8_MAL Rank (after) / P8_MAL Rank (before): P8 library; for Population: 4th round of selection against MAL TIR, share of NGS reads
How it was run: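 Read counts come from NGS of phage pools after the fourth selection round, barcoded by 20-cycle PCR and filtered for quality ≥30. Each round: phage incubated 1 h at RT on immobilised TIR protein (5 µg mL^−1, BSA-blocked), washed, HCl-eluted and amplified in E. coli TG1.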

[1] = selection against MAL, rank after grouping
[2] = selection against MAL, rank before grouping
[3] = P3_MAL: rank by count after grouping
[4] = P3_MAL: rank by count before grouping
[5] = selection against MAL TIR, rank by count after grouping
[6] = selection against MAL TIR, rank by count before grouping
[7] = P3_MAL pool: P3 T-Surf phage library
[8] = P8_MAL: rank by count after grouping
[9] = P8_MAL: rank by count before grouping
[10] = 4R selection against MAL, rank after grouping
[11] = 4R selection against MAL, rank before grouping
[12] = selection against MAL, rank by count after grouping
[13] = selection against MAL, rank by count before grouping

T1 sequence (P58753 79-221): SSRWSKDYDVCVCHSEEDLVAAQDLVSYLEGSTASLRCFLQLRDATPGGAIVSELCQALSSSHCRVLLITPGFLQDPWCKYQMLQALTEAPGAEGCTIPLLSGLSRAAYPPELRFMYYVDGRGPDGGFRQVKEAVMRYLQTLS

P8_MAL Rank (after) [1]: 556
P8_MAL Rank (before) [2]: 1888
Sequence: AFLYTLLNNVLRNPTI

P3_MAL Rank (after) [5]: 194
P3_MAL Rank (before) [6]: 1375
Sequence: YAFTGHLHCYLVQRGI

P3_MAL Rank (after) [5]: 199
P3_MAL Rank (before) [6]: 1440
Sequence: YAFTGHLNRSLVQRGV

Rank (after) [8]: 456
Rank (before) [9]: 1556
Sequence: YTALTNSGFHAFSDKD

Rank (after) [8]: 451
Rank (before) [9]: 2244
Sequence: RNLVAYLLQALANKGI

Population [7]: 0.00639%
Sequence: GSFREGLWRLLELSKK

P8_MAL Rank (after) [1]: 519
P8_MAL Rank (before) [2]: 2433
Sequence: QFFWDQLKSILGDTRF

P3_MAL Rank (after) [12]: 697
P3_MAL Rank (before) [13]: 3474
Sequence: KNVRLARSVRKNGVP

Rank (after) [3]: 478
Rank (before) [4]: 1518
Sequence: YLKWGYTRCWDRLRFA

Rank (after) [8]: 190
Rank (before) [9]: 1854
Sequence: AFLYTFLINLTHPPI

P3_MAL Rank (after) [10]: 593
P3_MAL Rank (before) [11]: 3169
Sequence: SSFREGLWRLMELSNK

P3_MAL Rank (after) [5]: 234
P3_MAL Rank (before) [6]: 3122
Sequence: SSFCEGLWRLLELSTK

P3_MAL Rank (after) [10]: 664
P3_MAL Rank (before) [11]: 3635
Sequence: KQWLNAPTAAANLSGW

P3_MAL Rank (after) [10]: 625
P3_MAL Rank (before) [11]: 3351
Sequence: NQWRNALSSIASRP

P8_MAL Rank (after) [5]: 260
P8_MAL Rank (before) [6]: 2058
Sequence: LFFWGSLRQLLRNDDG

P3_MAL Rank (after) [10]: 603
P3_MAL Rank (before) [11]: 3225
Sequence: SKDYAQSAWALAEHEKR

P3_MAL Rank (after) [12]: 772
P3_MAL Rank (before) [13]: 2410
Sequence: RGFRSHLRQHLQAKDH

P3_MAL Rank (after) [1]: 489
P3_MAL Rank (before) [2]: 3596
Sequence: KELEKYQLAILERDFQ

Rank (after) [3]: 431
Rank (before) [4]: 1700
Sequence: VRHTFAGYLCVALNRL

P8_MAL Rank (after) [5]: 266
P8_MAL Rank (before) [6]: 1447
Sequence: SFLYTFLITLTHPTTF

Rank (after) [8]: 473
Rank (before) [9]: 2095
Sequence: LFFWESLKQLLRAMA

P3_MAL Rank (after) [10]: 583
P3_MAL Rank (before) [11]: 1500
Sequence: YLKLGYPWCWDRRRFA

Rank (after) [3]: 149
Rank (before) [4]: 501
Sequence: WFWEKLRYALTAAANLSGW

P8_MAL Rank (after) [5]: 210
P8_MAL Rank (before) [6]: 1740
Sequence: AFFGAQLKSVLGNPPM

Rank (after) [8]: 134
Rank (before) [9]: 1827
Sequence: AFLYTFLVNLTHPPNF

Rank (after) [8]: 445
Rank (before) [9]: 1109
Sequence: CFLFTVRSAIYAMNPA

P3_MAL Rank (after) [1]: 574
P3_MAL Rank (before) [2]: 2748
Sequence: PNLRNKVLNYLLRTKT

P3_MAL Rank (after) [10]: 671
P3_MAL Rank (before) [11]: 2132
Sequence: LHNNRILVLITLPTNV

P3_MAL Rank (after) [12]: 715
P3_MAL Rank (before) [13]: 1367
Sequence: YAFTGHLERHEVQRGV

Rank (after) [8]: 462
Rank (before) [9]: 1955
Sequence: AVRYTILINLTHTTNF

P8_MAL Rank (after) [1]: 484
P8_MAL Rank (before) [2]: 2554
Sequence: TFLGPQYNALVQAGTH

P8_MAL Rank (after) [10]: 647
P8_MAL Rank (before) [11]: 1141
Sequence: WFYDRLVRLILRDTKV

P3_MAL Rank (after) [12]: 710
P3_MAL Rank (before) [13]: 3685
Sequence: KMQKWKDALYEAAN

P3_MAL Rank (after) [12]: 737
P3_MAL Rank (before) [13]: 2549
Sequence: RLQECKEALHQFHSWV

Rank (after) [3]: 451
Rank (before) [4]: 1266
Sequence: WFWNNLKYALPLRYDP

Population (P8_MAL pool: P8 T-Surf phage library): 0.00278%
Sequence: AFFWAQLKNVLGNPTM

P3_MAL Rank (after) [10]: 640
P3_MAL Rank (before) [11]: 2680
Sequence: PNLRTKVPNYPMLTKT

Rank (after) [8]: 156
Rank (before) [9]: 1778
Sequence: AFLWAQLNSVLGNPTM

P8_MAL Rank (after) [12]: 708
P8_MAL Rank (before) [13]: 1656
Sequence: AFFWAICIMRWCRRAF

P3_MAL Rank (after) [10]: 611
P3_MAL Rank (before) [11]: 1323
Sequence: CRFRQGLWRLLELSKK

P8_MAL Rank (after) [12]: 693
P8_MAL Rank (before) [13]: 2067
Sequence: LFFWEKLKSVLGNPTM

Rank (after) [8]: 144
Rank (before) [9]: 1392
Sequence: WLYVRLVSLILRDTKV

Rank (after) [8]: 169
Rank (before) [9]: 2151
Sequence: LFCWESLKQLLRSDCR

P8_MAL Rank (after) [5]: 202
P8_MAL Rank (before) [6]: 2241
Sequence: RNFMAYLFQALAHKGI

The remaining lines, values behind:

Sequence: CVYRPSASLSGAAWR
P3_MAL Rank (after) [1]: 568
P3_MAL Rank (before) [2]: 1321

Sequence: MSHLYQGLQHRGIFTF
Rank (after) [3]: 396
Rank (before) [4]: 2943

Sequence: AFLYTFLINLTHPQF
P8_MAL Rank (after) [5]: 275
P8_MAL Rank (before) [6]: 1852

Sequence: YAFTGHLHSYLVQRGV
Population [7]: 0.00338%

Sequence: LFLGESLKLLRRSDGR
P8_MAL Rank (after) [10]: 652
P8_MAL Rank (before) [11]: 2150

Sequence: LCFCESLKQLLRSDGR
Rank (after) [8]: 110
Rank (before) [9]: 2161

Sequence: DFSHFWLFEAGGDAAI
P8_MAL Rank (after) [1]: 532
P8_MAL Rank (before) [2]: 1981

Sequence: KLQEWRDALTAAANLSGW
P3_MAL Rank (after) [10]: 600
P3_MAL Rank (before) [11]: 3631

Sequence: SPQEQDGFWVRLIEAL
Rank (after) [8]: 466
Rank (before) [9]: 2527

Sequence: TFLGHLYSALVHAGIH
Rank (after) [8]: 479
Rank (before) [9]: 2561

Sequence: SSFREGLASAGTEQK
Rank (after) [3]: 156
Rank (before) [4]: 1037

Sequence: GCYERLVSLILRDTKV
Rank (after) [8]: 121
Rank (before) [9]: 1571

Sequence: TFFSQQLNTVVHTAIL
P8_MAL Rank (after) [12]: 697
P8_MAL Rank (before) [13]: 2542

Sequence: NHWRNALTAAANLIGW
P8_MAL Rank (after) [5]: 248
P8_MAL Rank (before) [6]: 2657

Sequence: DHHLDLPLAKRLNRKFW
P3_MAL Rank (after) [1]: 492
P3_MAL Rank (before) [2]: 1922

Sequence: TFLIHQNNARMHANIL
P8_MAL Rank (after) [5]: 253
P8_MAL Rank (before) [6]: 2545

Sequence: NQCRNALTAAANLKGW
Rank (after) [3]: 146
Rank (before) [4]: 3327

Sequence: KWFLAKLIYALSRNPH
P3_MAL Rank (after) [12]: 758
P3_MAL Rank (before) [13]: 3484

Sequence: VEPTQVRKQSGAVEM
P3_MAL Rank (after) [12]: 716
P3_MAL Rank (before) [13]: 1671

Sequence: PEKDTVRVNVIIHNIV
Rank (after) [3]: 470
Rank (before) [4]: 2642

Sequence: YAFTGHLHHIWCSVA
P3_MAL Rank (after) [12]: 686
P3_MAL Rank (before) [13]: 1430

Sequence: LKVEGWRLALEKAGTL
P3_MAL Rank (after) [1]: 484
P3_MAL Rank (before) [2]: 2258

Sequence: YALTGQLHRYLVQRGV
Rank (after) [3]: 151
Rank (before) [4]: 1485

Sequence: GFYERQVSLVLGDTKV
P8_MAL Rank (after) [5]: 281
P8_MAL Rank (before) [6]: 1569

Sequence: SFLGHLYNALVQADIH
P8_MAL Rank (after) [10]: 664
P8_MAL Rank (before) [11]: 1452

Sequence: WFYERLVSLIRRDTQV
Rank (after) [8]: 106
Rank (before) [9]: 1220

Sequence: DWSLSKLSQHFLKREK
P3_MAL Rank (after) [1]: 485
P3_MAL Rank (before) [2]: 1909

Sequence: ALHNAFWDRLWTKLAP
P3_MAL Rank (after) [1]: 544
P3_MAL Rank (before) [2]: 1842

Sequence: TFLATLYNALAQAGIH
Rank (after) [8]: 449
Rank (before) [9]: 2620

Sequence: AFFWAQLKSVLRTQTM
P8_MAL Rank (after) [12]: 696
P8_MAL Rank (before) [13]: 1633

Sequence: SSLREGLLRLQELSKK
P3_MAL Rank (after) [12]: 713
P3_MAL Rank (before) [13]: 3205

Sequence: WFWVKLLYALTYRPGI
P3_MAL Rank (after) [10]: 651
P3_MAL Rank (before) [11]: 1227

Sequence: HQASWNRLWEQLKPRT
P3_MAL Rank (after) [1]: 505
P3_MAL Rank (before) [2]: 2891

Sequence: YFWHALKNALAEHEKR
P3_MAL Rank (after) [10]: 674
P3_MAL Rank (before) [11]: 1334

Sequence: RGFLSHLHHALRLNKIEAF
P3_MAL Rank (after) [12]: 747
P3_MAL Rank (before) [13]: 2390

Sequence: KERPFGAQRAEKWRTALT
Rank (after) [3]: 466
Rank (before) [4]: 3611

Sequence: TFLGHLLNALVQTDIL
P8_MAL Rank (after) [1]: 508
P8_MAL Rank (before) [2]: 2607

Sequence: RYIMPHPQELIQKNS
Rank (after) [3]: 389
Rank (before) [4]: 2337

Sequence: ESILNQLRHHLQAKDH
Rank (after) [3]: 170
Rank (before) [4]: 544
